Results published in US8470804B2, “11a, 12-derivatives of tetracycline compounds” (Paratek Pharmaceuticals, Inc., priority 2005, dated 2013).

Assays:
common bacteria = test: In vitro minimum inhibitory concentration (MIC) assay; type: cell-based, E. coli, S. aureus, Enterococcus sp.; details: broth microdilution in CAMHB, 35° C., approximately 18 hours
Experimental: The following assay was used to determine the efficacy of tetracycline compounds against common bacteria. 2 mg of each compound were dissolved in 100 μl of DMSO. […] The tetracycline compound solutions were diluted to 50 μl, volumes, with a test compound concentration of 0.098 μg/ml. Optical density (OD) determinations were made from fresh log-phase broth cultures of the test strains. Dilutions were made to achieve a final cell density of 1×10^6 CFU/ml. At OD=1, cell densities for different genera were approximately: [table] 50 μl of the cell suspensions were added to each well of microtiter plates. The final cell density should be approximately 5×10^5 CFU/ml. These plates are incubated at 35° C. in an ambient air incubator for approximately 18 hours. The plates are read with a microplate reader and are visually inspected when necessary. The MIC was defined as the lowest concentration of the tetracycline compound that inhibits growth.

EAE induced mice = test: In vivo experimental autoimmune encephalomyelitis (EAE) murine model; design: species or system C57BL/6 female mice; details: IP injections 50 mg/kg each day from day 10 (onset of disease); minocycline control at same dose
Experimental: In this example, a mouse model was used to determine the ability of the tetracycline compounds to treat demyelination related diseases. Other models which can be used are described in Brundula V. et al. Brain 2002 June; 125 (Pt 6): 1297-308 and Popovic N. et al. Ann Neural. 2002 February; 51(2):215-23.
To induce EAE, 6 week old C57BL/6 female mice were injected subcutaneously with 200 ug of myelin oligodendrocyte glycoprotein peptide (MOG 35-55) emulsified in 200 μL of complete Freund's adjuvant containing an additional 4 mg/mL of heat killed M. tuberculosis. Mice were additionally injected intravenously (tail vein) with 150 ng of lyophilized pertussis toxin resuspended in 150 μL PBS at time 0 and again 48 hours later. In this model, the mice developed progressive posterior to anterior advancing paralysis with symptoms first appearing at 10-12 days and progressing to severe paralysis by approximately 21 days. Severity of EAE was scored daily according to the following criteria: 0, healthy; 1, limp tail; 2, partial paralysis of one or two hind limbs; 3, complete paralysis of the hind limbs; 4, complete hind limb paralysis and forelimb paraparesis; 5, moribund. All test experiments included control groups of EAE induced mice treated with vehicle only or treated with minocycline, with 10 mice per group. […]

For C[C@H]1c2ccc(N(C)C)c(O)c2C(=O)C2=C[C@]3(O)C(=O)C(C(N)=O)=C(O)[C@@H](N(C)C)[C@@H]3[C@@H](O)[C@@H]21 [9-bis-dimethylamino-12-dehydrodoxycline, (4S,4aR,5S,5aR,6R,12aR)-4,9-Bis-dimethylamino-3,5,10,12a-tetrahydroxy-6-methyl-1,11-dioxo-1,4,4a,5,5a,6,11,12a-octahydro-naphthacene-2-carboxylic acid amide], the “antibacterial activity (MIC)” value (common bacteria) was “low antibacterial activity”.

CNC1C2C(=O)c3c(O)cccc3[C@H](C)[C@H]2[C@H](O)[C@H]2[C@H](N(C)C)C(O)=C(C(N)=O)C(=O)[C@@]12O (stereo partly drawn) [12-methylamino-12-dehydrodoxycycline, (4S,4aR,5S,5aR,6R,12aS)-4-Dimethylamino-3,5,10,12a-tetrahydroxy-6-methyl-12-methylamino-1,11-dioxo-1,4,4a,5,5a,6,11,11a,12,12a-decahydro-naphthacene-2-carboxylic acid amide] was tested, and the “activity in EAE model (severity of EAE scored daily 0-5) compared with minocycline” value (EAE induced mice) was “activity similar to or better than minocycline”.

C[C@H]1c2cccc(O)c2C(=O)C2=C[C@]3(O)C(=O)C(C(N)=O)=C(O)[C@@H](N(C)C)[C@@H]3[C@@H](O)[C@@H]21 [12-dehydrodoxycycline, (4S,4aR,5S,5aR,6R,12aR)-4-Dimethylamino-3,5,10,12a-tetrahydroxy-6-methyl-1,11-dioxo-1,4,4a,5,5a,6,11,12a-octahydro-naphthacene-2-carboxylic acid amide] was tested, and the “activity in EAE model (severity of EAE scored daily 0-5) compared with minocycline” value (EAE induced mice) was “activity similar to or better than minocycline” and the “antibacterial activity (MIC)” value (common bacteria) was “low antibacterial activity”.

C[C@H]1c2ccc(N)c(O)c2C(=O)C2=C[C@]3(O)C(=O)C(C(N)=O)=C(O)[C@@H](N(C)C)[C@@H]3[C@@H](O)[C@@H]21 [9-Amino-12-dehydrodoxycline, (4S,4aR,5S,5aR,6R,12aR)-9-Amino-4-dimethylamino-3,5,10,12a-tetrahydroxy-6-methyl-1,11-dioxo-1,4,4a,5,5a,6,11,12a-octahydro-naphthacene-2-carboxylic acid amide] was tested, and the “antibacterial activity (MIC)” value (common bacteria) was “low antibacterial activity”.
